Source: ChEMBL document CHEMBL1201862, “PubChem BioAssay data set” (2004)
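Interpolation was linear, between the two tested concentrations surrounding the appropriate level; five concentrations were tested over 48 hours in 96-well plates. GI50: concentration for 50% inhibition of growth.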 Active and inactive are the calls of the source. Rule as the data show it: active = GI50 up to about 1.1 µM and inactive = higher.

What was measured:
Experiment in all cases: NCI-60 cell line screen, 48 h
[1] = tested on: A549
[2] = tested on: SF-268
[3] = tested on: SN12C
[4] = tested on: EKVX
[5] = tested on: MOLT-4
[6] = tested on: HCC 2998
[7] = tested on: OVCAR-3
[8] = tested on: HL-60
[9] = tested on: ACHN
[10] = tested on: SK-MEL-28
[11] = tested on: IGROV-1
[12] = tested on: HCT-15
[13] = tested on: COLO 205
[14] = tested on: SK-OV-3
[15] = tested on: UO-31
[16] = tested on: OVCAR-8

O=C(O)CCC(=O)Nc1ccc2ccccc2c1
GI50 [1]: > 100 µM (inactive) | GI50 [2]: > 100 µM (inactive) | GI50 [3]: > 100 µM (inactive) | GI50 [4]: > 100 µM (inactive) | GI50 [5]: > 100 µM (inactive) | GI50 [6]: > 100 µM (inactive) | GI50 [7]: > 100 µM (inactive) | GI50 [8]: > 100 µM (inactive) | GI50 [9]: > 100 µM (inactive) | GI50 [10]: > 100 µM (inactive) | GI50 [11]: > 100 µM (inactive) | GI50 [12]: > 100 µM | GI50 [13]: > 100 µM (inactive) | GI50 [14]: > 100 µM (inactive) | GI50 [15]: > 100 µM (inactive) | GI50 [16]: > 100 µM (inactive)

COc1ccc(NC(=S)c2ccoc2C)cc1CC(=O)OC(C)C
GI50 [1]: 26.4 µM (inactive) | GI50 [2]: 43.4 µM (inactive) | GI50 [3]: 66.1 µM (inactive) | GI50 [4]: 25.1 µM (inactive) | GI50 [5]: 18.8 µM (inactive) | GI50 [6]: 45.5 µM (inactive) | GI50 [7]: 26.5 µM (inactive) | GI50 [8]: 22.1 µM (inactive) | GI50 [9]: 30.8 µM (inactive) | GI50 [10]: 34.4 µM (inactive) | GI50 [11]: 36 µM (inactive) | GI50 [12]: 55.2 µM | GI50 [13]: 17.7 µM (inactive) | GI50 [14]: 54 µM (inactive) | GI50 [15]: 30.6 µM (inactive) | GI50 [16]: 29 µM (inactive)

COC(=O)c1c(C(=O)OC)c2ccccn2c1-c1cc(C)cc2c1C(=O)C=CC2=O
GI50 [1]: 16.3 µM (inactive) | GI50 [2]: 13.9 µM (inactive) | GI50 [3]: 12.7 µM (inactive) | GI50 [4]: 14.8 µM (inactive) | GI50 [5]: 1.38 µM (inactive) | GI50 [6]: 13.9 µM (inactive) | GI50 [7]: 11 µM (inactive) | GI50 [8]: 2.24 µM (inactive) | GI50 [9]: 12.6 µM (inactive) | GI50 [10]: 12.9 µM (inactive) | GI50 [11]: 12.8 µM (inactive) | GI50 [12]: 10.6 µM | GI50 [13]: 5.22 µM (inactive) | GI50 [14]: > 10 µM (inactive) | GI50 [15]: 2.38 µM (inactive) | GI50 [16]: 6.3 µM (inactive)

Brc1ccc2[nH]cc(-c3nc(-c4c[nH]c5ccccc45)cs3)c2c1
GI50 [1]: 3.24 µM (inactive) | GI50 [2]: 3 µM (inactive) | GI50 [3]: 3.49 µM (inactive) | GI50 [4]: 2.46 µM (inactive) | GI50 [5]: 2.11 µM (inactive) | GI50 [6]: 2.3 µM (inactive) | GI50 [7]: 3.42 µM (inactive) | GI50 [8]: 3.37 µM (inactive) | GI50 [9]: 2.43 µM (inactive) | GI50 [10]: 5.81 µM (inactive) | GI50 [11]: 1.58 µM (inactive) | GI50 [12]: 2.39 µM | GI50 [13]: 1.22 µM (inactive) | GI50 [14]: 8.13 µM (inactive) | GI50 [15]: 2.97 µM (inactive) | GI50 [16]: 4.27 µM (inactive)

CCOP(=O)(OCC)C(c1ccc(F)cc1)N(C(=O)NC(F)(F)F)c1cccc(C(F)(F)F)c1 (stereo not drawn)
GI50 [1]: 82.2 µM (inactive) | GI50 [2]: > 100 µM (inactive) | GI50 [3]: > 100 µM (inactive) | GI50 [4]: > 100 µM (inactive) | GI50 [5]: 61.9 µM (inactive) | GI50 [6]: > 100 µM (inactive) | GI50 [7]: > 100 µM (inactive) | GI50 [8]: 43.9 µM (inactive) | GI50 [9]: > 100 µM (inactive) | GI50 [10]: > 100 µM (inactive) | GI50 [11]: 65.8 µM (inactive) | GI50 [12]: > 100 µM | GI50 [13]: > 100 µM (inactive) | GI50 [14]: > 100 µM (inactive) | GI50 [15]: 94.8 µM (inactive) | GI50 [16]: > 100 µM (inactive)

COC(=O)C1c2cc3c(cc2C(OC2OC(C)C(OC)C(C)(OC)C2OC)CC1(C)O)C(=O)c1c(O)cc2c(c1C3=O)OC1OC2(C)C(O)C([N+](C)(C)[O-])C1O (stereo not drawn)
GI50 [1]: 0.227 µM (active) | GI50 [2]: 0.0891 µM (active) | GI50 [3]: 0.102 µM (active) | GI50 [4]: 0.658 µM (active) | GI50 [5]: 0.416 µM (active) | GI50 [6]: 0.146 µM (active) | GI50 [7]: 0.658 µM (active) | GI50 [8]: 0.286 µM (active) | GI50 [9]: 0.309 µM (active) | GI50 [10]: 0.195 µM (active) | GI50 [11]: 0.0791 µM (active) | GI50 [12]: 2.78 µM | GI50 [13]: 0.0634 µM (active) | GI50 [14]: 1.64 µM (inactive) | GI50 [15]: 1.19 µM (inactive) | GI50 [16]: 0.0927 µM (active)

COc1cc(C2C3=C(COC3=O)Oc3cc4c(cc32)OCO4)ccc1OC(C)=O (stereo not drawn)
GI50 [1]: 0.957 µM (active) | GI50 [2]: 1.09 µM (active) | GI50 [3]: 2.19 µM (inactive) | GI50 [4]: 1.21 µM (inactive) | GI50 [5]: 0.536 µM (active) | GI50 [6]: 1.01 µM (active) | GI50 [7]: 0.244 µM (active) | GI50 [8]: 0.188 µM (active) | GI50 [9]: 0.55 µM (active) | GI50 [10]: 10.8 µM (inactive) | GI50 [11]: 0.238 µM (active) | GI50 [12]: 0.468 µM | GI50 [13]: 0.224 µM (active) | GI50 [14]: 0.334 µM (active) | GI50 [15]: 0.352 µM (active) | GI50 [16]: 0.752 µM (active)

C=C1C(=O)O[C@H]2[C@H](OC(C)=O)[C@@H](C)CCC/C(C)=C/CC[C@@]3(C)O[C@@H]3C[C@@H]12
GI50 [1]: 7.35 µM (inactive) | GI50 [2]: 5.62 µM (inactive) | GI50 [3]: 1.61 µM (inactive) | GI50 [4]: 3.42 µM (inactive) | GI50 [5]: 2.6 µM (inactive) | GI50 [6]: 5.27 µM (inactive) | GI50 [7]: 4.97 µM (inactive) | GI50 [8]: 0.398 µM (active) | GI50 [9]: 1.72 µM (inactive) | GI50 [10]: 4.72 µM (inactive) | GI50 [11]: 2.77 µM (inactive) | GI50 [12]: 2.31 µM | GI50 [13]: 3.19 µM (inactive) | GI50 [14]: 15.6 µM (inactive) | GI50 [15]: 2.9 µM (inactive) | GI50 [16]: 0.885 µM (active)
